Read-outs that look alike come from different tables or passages of the source.
Assays:
Assay in all cases: Kinase selectivity, P33-radiolabeled assay
Format in all cases: biochemical
Conditions in all cases: 10 μM ATP
ALK2/ACVR1 = target: T1, ALK2/ACVR1 (Homo sapiens, UniProt Q04771)
T1 construct: purchased Reaction Biology Corp
T1 sequence (Q04771 21-509): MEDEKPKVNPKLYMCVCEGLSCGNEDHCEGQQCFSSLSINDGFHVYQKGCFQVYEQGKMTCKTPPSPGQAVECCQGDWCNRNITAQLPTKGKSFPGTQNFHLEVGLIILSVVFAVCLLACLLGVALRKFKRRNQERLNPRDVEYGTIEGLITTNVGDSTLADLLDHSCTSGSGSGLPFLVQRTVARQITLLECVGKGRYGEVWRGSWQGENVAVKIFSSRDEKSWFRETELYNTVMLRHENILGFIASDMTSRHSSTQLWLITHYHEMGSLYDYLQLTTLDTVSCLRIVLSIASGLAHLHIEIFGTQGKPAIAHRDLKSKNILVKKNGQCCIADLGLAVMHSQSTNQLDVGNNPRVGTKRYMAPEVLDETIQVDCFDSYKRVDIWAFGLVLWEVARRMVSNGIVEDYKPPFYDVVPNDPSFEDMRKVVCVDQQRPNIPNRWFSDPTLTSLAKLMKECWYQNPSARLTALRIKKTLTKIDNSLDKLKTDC
In short: (§1)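 Reactions contained 10 μM ATP and 10 μM test compound, each run in duplicate. Kinase activity is expressed as a percentage of DMSO-treated controls.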

SGK2 = target: T2, SGK2 (Homo sapiens, UniProt Q9HBY8)
T2 construct: purchased Reaction Biology Corp
T2 sequence (Q9HBY8 1-367): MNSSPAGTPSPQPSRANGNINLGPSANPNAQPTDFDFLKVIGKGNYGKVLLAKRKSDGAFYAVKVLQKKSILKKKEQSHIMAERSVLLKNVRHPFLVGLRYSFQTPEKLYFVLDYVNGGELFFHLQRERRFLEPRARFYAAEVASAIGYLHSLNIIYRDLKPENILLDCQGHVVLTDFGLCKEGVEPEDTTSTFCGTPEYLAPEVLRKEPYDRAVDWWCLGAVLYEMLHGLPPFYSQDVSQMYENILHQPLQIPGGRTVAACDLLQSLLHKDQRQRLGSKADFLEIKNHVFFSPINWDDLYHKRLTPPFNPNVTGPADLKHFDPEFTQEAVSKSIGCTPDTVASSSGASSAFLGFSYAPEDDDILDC
In short: as §1

TAOK2/TAO1 = target: T3, TAOK2/TAO1 (Homo sapiens, UniProt Q9UL54)
T3 construct: purchased Reaction Biology Corp
T3 sequence (Q9UL54 1-1235): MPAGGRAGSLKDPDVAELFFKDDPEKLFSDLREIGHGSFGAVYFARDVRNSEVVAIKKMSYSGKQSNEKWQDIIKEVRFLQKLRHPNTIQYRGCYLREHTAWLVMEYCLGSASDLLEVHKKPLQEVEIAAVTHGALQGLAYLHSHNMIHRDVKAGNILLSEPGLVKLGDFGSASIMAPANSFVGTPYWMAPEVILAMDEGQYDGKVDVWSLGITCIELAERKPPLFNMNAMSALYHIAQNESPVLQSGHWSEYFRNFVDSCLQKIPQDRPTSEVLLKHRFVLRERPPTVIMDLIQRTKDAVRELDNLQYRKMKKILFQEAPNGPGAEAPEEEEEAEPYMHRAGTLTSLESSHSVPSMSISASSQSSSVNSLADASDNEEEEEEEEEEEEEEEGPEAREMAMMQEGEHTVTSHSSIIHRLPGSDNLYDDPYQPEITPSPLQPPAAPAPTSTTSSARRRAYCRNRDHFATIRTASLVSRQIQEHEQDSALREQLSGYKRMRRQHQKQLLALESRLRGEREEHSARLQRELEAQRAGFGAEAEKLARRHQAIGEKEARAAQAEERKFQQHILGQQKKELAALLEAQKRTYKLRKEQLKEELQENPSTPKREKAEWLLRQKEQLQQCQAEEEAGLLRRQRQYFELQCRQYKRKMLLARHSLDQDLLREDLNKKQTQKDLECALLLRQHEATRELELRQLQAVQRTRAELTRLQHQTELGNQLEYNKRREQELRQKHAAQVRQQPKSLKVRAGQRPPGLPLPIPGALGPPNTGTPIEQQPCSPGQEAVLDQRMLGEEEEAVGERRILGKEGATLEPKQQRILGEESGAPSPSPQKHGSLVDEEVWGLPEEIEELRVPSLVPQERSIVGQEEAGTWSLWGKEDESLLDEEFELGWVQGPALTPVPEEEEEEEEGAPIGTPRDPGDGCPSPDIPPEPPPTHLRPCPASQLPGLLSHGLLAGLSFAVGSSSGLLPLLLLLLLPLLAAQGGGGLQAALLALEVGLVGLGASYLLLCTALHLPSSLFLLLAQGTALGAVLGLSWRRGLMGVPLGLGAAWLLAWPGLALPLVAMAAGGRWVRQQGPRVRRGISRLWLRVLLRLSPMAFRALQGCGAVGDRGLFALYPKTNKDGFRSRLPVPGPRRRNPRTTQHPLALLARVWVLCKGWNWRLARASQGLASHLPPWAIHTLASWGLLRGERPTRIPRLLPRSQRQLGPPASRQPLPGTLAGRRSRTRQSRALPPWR
In short: as §1

[1] = read-out: % Enzyme Activity (relative to DMSO controls) AVG
[2] = read-out: % Enzyme Activity (relative to DMSO controls) Data 1
[3] = read-out: % Enzyme Activity (relative to DMSO controls) Data 2

Structure (SMILES): CC(C)(C)C(=O)N1N=CC[C@H]1c1ccccc1 [GSK′963]
- remaining activity at 10 µM (ALK2/ACVR1; [1]): 98.1%
- remaining activity at 10 µM (ALK2/ACVR1; [2]): 94%
- remaining activity at 10 µM (ALK2/ACVR1; [3]): 102%
- remaining activity at 10 µM (SGK2; [1]): 107%
- remaining activity at 10 µM (SGK2; [2]): 109%
- remaining activity at 10 µM (SGK2; [3]): 106%
- remaining activity at 10 µM (TAOK2/TAO1; [1]): 95.6%
- remaining activity at 10 µM (TAOK2/TAO1; [2]): 97%
- remaining activity at 10 µM (TAOK2/TAO1; [3]): 94.2%

— publication PMC4979471 (Cell Death Discovery, 2015)
